# Source: US20100056565A1, “Heterocyclic Derivatives as M3 Muscarinic Receptors” (priority 2007, published 2010)
# Counter-ions that a name gives are not always drawn.
# Target: T1, Recombinant human M3 receptor (Homo sapiens, UniProt P20309)
# T1 construct: expressed in transfected cells; host or cells: CHO-K1 cells (membranes)
# Assay: biochemical
# Assay type: binding
# Details: M3, SPA format assay; read-out: Ki in the SPA format assay
# T1 sequence (P20309 whole entry): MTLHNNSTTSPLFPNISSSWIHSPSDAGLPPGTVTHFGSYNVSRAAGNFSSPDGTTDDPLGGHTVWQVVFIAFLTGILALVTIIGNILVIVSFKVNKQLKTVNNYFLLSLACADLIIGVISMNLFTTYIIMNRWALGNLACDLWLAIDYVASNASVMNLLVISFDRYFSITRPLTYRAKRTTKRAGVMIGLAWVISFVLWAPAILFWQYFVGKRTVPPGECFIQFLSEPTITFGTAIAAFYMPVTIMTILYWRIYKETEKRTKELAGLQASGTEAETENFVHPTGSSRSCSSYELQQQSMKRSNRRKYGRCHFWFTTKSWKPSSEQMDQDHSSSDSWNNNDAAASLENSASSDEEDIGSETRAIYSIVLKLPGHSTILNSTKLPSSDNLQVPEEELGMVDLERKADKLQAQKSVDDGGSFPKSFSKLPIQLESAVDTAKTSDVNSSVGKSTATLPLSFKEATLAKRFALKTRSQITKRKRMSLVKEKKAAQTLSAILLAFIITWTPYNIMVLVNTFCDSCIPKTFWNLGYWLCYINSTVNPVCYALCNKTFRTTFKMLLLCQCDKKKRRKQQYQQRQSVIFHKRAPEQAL
row,SMILES,Ki [nM]
1,"O[C@](c1ccccc1)(c1ncc(C[N+]23CCC(CC2)[C@@H](Oc2ccc(F)cc2)C3)o1)C1CCCCC1 [Example 66, (R)-1-[2-((R)—Cyclohexyl-hydroxy-phenyl-methyl)-oxazol-5-ylmethyl]-3-(4-fluoro-phenoxy)-1-azonia-bicyclo[2.2.2]octane; bromide]",0.09

# Same assay, conditions: SPA format; read-out: M3 Ki (SPA format)
row,SMILES,Ki [nM]
1,"OC(c1ccccc1)(c1ccccc1)c1ncc(C[N+]23CCC(CC2)[C@@H](Oc2ccc(C(F)(F)F)cc2)C3)o1 [Example 57, (R)-1-[2-(Hydroxy-diphenyl-methyl)-oxazol-5-ylmethyl]-3-(4-trifluoromethyl-phenoxy)-1-azonia-bicyclo[2.2.2]octane; bromide]",5 to 20
2,"OC(c1ccccc1)(c1ccccc1)c1noc(C[N+]23CCC(CC2)[C@@H](SC2CCCCC2)C3)n1 [Example 138, (R)-3-Cyclohexylsulfanyl-1-[3-(hydroxy-diphenyl-methyl)-[1,2,4]oxadiazol-5-ylmethyl]-1-azonia-bicyclo[2.2.2]octane; chloride]",< 5
3,"O[C@](c1ccccc1)(c1ncc(C[N+]23CCC(CC2)C(COc2cccc(F)c2)C3)o1)C1CCCCC1 (single isomer, unassigned) [Example 85]",< 5
4,"O=C(N[C@H]1C[N+]2(Cc3cnc([C@](O)(c4ccccc4)C4CCCCC4)o3)CCC1CC2)c1ccccc1 [Example 13, (R)-3-benzoylamino-1-[2-((R)-cyclohexyl-hydroxy-phenyl-methyl)-oxazol-5-ylmethyl]-1-azonia-bicyclo[2.2.2]octane; formate]",> 20
5,"OC(c1ccccc1)(c1ccccc1)c1ncc(C[N+]23CCC(CC2)[C@@H](Sc2ccc(F)c(F)c2)C3)o1 [Example 99, (R)-3-(3,4-Difluoro-phenylsulfanyl)-1-[2-(hydroxy-diphenyl-methyl)-oxazol-5-ylmethyl]-1-azonia-bicyclo[2.2.2]octane; bromide]",< 5
6,"O[C@](c1ccccc1)(c1ncc(C[N+]23CCC(CC2)C(COc2cccc(F)c2)C3)o1)C1CCCCC1 (single isomer, unassigned) [Example 81]",< 5
7,"OC(c1ccccc1)(c1noc(C[N+]23CCC(CC2)[C@@H](OCc2ccccc2)C3)n1)C1CCCCC1 (single isomer, unassigned) [Example 30, formate]",< 5
8,"O[C@](c1ccccc1)(c1ncc(C[N+]23CCC(CC2)[C@@H](Sc2cccc(F)c2)C3)o1)C1CCCCC1 [Example 105, (R)-1-[2-((R)—Cyclohexyl-hydroxy-phenyl-methyl)-oxazol-5-ylmethyl]-3-(3-fluoro-phenylsulfanyl)-1-azonia-bicyclo[2.2.2]octane; bromide]",< 5
9,"OC(c1ccccc1)(c1ccccc1)c1ncc(C[N+]23CCC(CC2)C(COc2ccc(F)cc2)C3)o1 (single isomer, unassigned) [Example 86, 3-(4-Fluoro-phenoxymethyl)-1-[2-(hydroxy-diphenyl-methyl)-oxazol-5-ylmethyl]-1-azonia-bicyclo[2.2.2]octane; bromide]",5 to 20
10,"OC(c1ccccc1)(c1cc(C[N+]23CCC(CC2)[C@@H](OCc2ccc(F)cc2)C3)on1)C1CCCCC1 (single isomer, unassigned) [Example 54]",< 5
11,"OC(c1ccccc1)(c1ccccc1)c1noc(C[N+]23CCC(CC2)[C@@H](Oc2ccc(Cl)cc2)C3)n1 [Example 136, (R)-3-(4-Chloro-phenoxy)-1-[3-(hydroxy-diphenyl-methyl)-[1,2,4]oxadiazol-5-ylmethyl]-1-azonia-bicyclo[2.2.2]octane; chloride]",< 5
12,"O[C@](c1ccccc1)(c1ncc(C[N+]23CCC(CC2)[C@H](CSc2cccc(F)c2)C3)o1)C1CCCCC1 [Example 111, (S)-1-[2-((R)—Cyclohexyl-hydroxy-phenyl-methyl)-oxazol-5-ylmethyl]-3-(3-fluoro-phenylsulfanylmethyl)-1-azonia-bicyclo[2.2.2]octane; bromide]",< 5
13,"OC(c1ccccc1)(c1ccccc1)c1ncc(C[N+]23CCC(CC2)[C@H](COc2ccccc2)C3)o1 [Example 92, (S)-1-[2-(Hydroxy-diphenyl-methyl)-oxazol-5-ylmethyl]-3-phenoxymethyl-1-azonia-bicyclo[2.2.2]octane; bromide]",5 to 20
14,"N#Cc1cccc(O[C@H]2C[N+]3(Cc4nc(C(O)(c5ccccc5)c5ccccc5)no4)CCC2CC3)c1 [Example 139, (R)-3-(3-Cyano-phenoxy)-1-[3-(hydroxy-diphenyl-methyl)-[1,2,4]oxadiazol-5-ylmethyl]-1-azonia-bicyclo[2.2.2]octane; chloride]",< 5
15,"OC(c1ccccc1)(c1ccccc1)c1ncc(C[N+]23CCC(CC2)[C@@H](Oc2cccc(Cl)c2Cl)C3)o1 [Example 77, (R)-3-(2,3-dichloro-phenoxy)-1-[2-(hydroxy-diphenyl-methyl)-oxazol-5-ylmethyl]-1-azonia-bicyclo[2.2.2]octane; bromide]",> 20
16,"OC(c1ccccc1)(c1ccccc1)c1noc(C[N+]23CCC(CC2)[C@@H](Oc2ccsc2)C3)n1 [Example 115, (R)-1-[3-(Hydroxy-diphenyl-methyl)-[1,2,4]oxadiazol-5-ylmethyl]-3-(thiophen-3-yloxy)-1-azonia-bicyclo[2.2.2]octane; chloride]",< 5
17,"Cc1ccc(O[C@H]2C[N+]3(Cc4nc(C(O)(c5ccccc5)c5ccccc5)no4)CCC2CC3)cc1Cl [Example 104, (R)-3-(3-Chloro-4-methyl-phenoxy)-1-[3-(hydroxy-diphenyl-methyl)-[1,2,4]oxadiazol-5-ylmethyl]-1-azonia-bicyclo[2.2.2]octane; chloride]",< 5

row,SMILES,Ki [nM]
1,"O[C@](c1ccccc1)(c1ncc(C[N+]23CCC(CC2)[C@@H](Oc2ccc(F)cc2)C3)o1)C1CCCCC1 [Example 66, (R)-1-[2-((R)—Cyclohexyl-hydroxy-phenyl-methyl)-oxazol-5-ylmethyl]-3-(4-fluoro-phenoxy)-1-azonia-bicyclo[2.2.2]octane; bromide]",< 5
2,"O[C@](c1ccccc1)(c1ncc(C[N+]23CCC(CC2)C(CCc2ccccc2)C3)o1)C1CCCCC1 (stereo partly drawn) [Example 36, 1-[2-((R)—Cyclohexyl-hydroxy-phenyl-methyl)-oxazol-5-ylmethyl]-3-phenethyl-1-azonia-bicyclo[2.2.2]octane; bromide]",< 5
3,"O[C@](c1ccccc1)(c1nnc(C[N+]23CCC(CC2)[C@@H](Oc2ccc(F)cc2)C3)o1)C1CCCCC1 [Example 142, (R)-1-[5-((R)—Cyclohexyl-hydroxy-phenyl-methyl)-[1,3,4]oxadiazol-2-ylmethyl]-3-(4-fluoro-phenoxy)-1-azonia-bicyclo[2.2.2]octane; bromide]",< 5
4,"OC(c1ccccc1)(c1ccccc1)c1ncc(C[N+]23CCC(CC2)[C@@H](Oc2cccc(C(F)(F)F)c2)C3)o1 [Example 75, (R)-1-[2-[Hydroxy-diphenyl-methyl)-oxazol-5-ylmethyl]-3-(3-trifluoromethyl-phenoxy)-1-azonia-bicyclo[2.2.2]octane; bromide]",< 5
5,"O[C@](c1ccccc1)(c1ncc(C[N+]23CCC(COc4ccccc4)(CC2)CC3)o1)C1CCCCC1 [Example 55, 1-[2 ((R)—Cyclohexyl-hydroxy-phenyl-methyl)-oxazol-5-ylmethyl]-4-phenoxymethyl-1-azonia-bicyclo[2.2.2]octane; bromide]",< 5
6,"OC(c1ccccc1)(c1ccccc1)c1ncc(C[N+]23CCC(CC2)[C@@H](Oc2ccsc2)C3)o1 [Example 114, (R)-1-[2-(Hydroxy-diphenyl-methyl)-oxazol-5-ylmethyl]-3-(thiophen-3-yloxy)-1-azonia-bicyclo[2.2.2]octane; bromide]",5 to 20
7,"O[C@@](c1ccccc1)(c1ncc(C[N+]23CCC(CC2)[C@H](Oc2ccccc2)C3)o1)C1CCCCC1 [Example 6, (S)-1-[2-((S)—Cyclohexyl-hydroxy-phenyl-methyl)-oxazol-5-ylmethyl]-3-phenoxy-1-azonia-bicyclo[2.2.2]octane bromide]",> 20
8,"O=C(N[C@@H]1C[N+]2(Cc3cnc([C@](O)(c4ccccc4)C4CCCCC4)o3)CCC1CC2)c1ccccc1 [Example 15, (S)-3-Benzoylamino-1-[2-((R)-cyclohexyl-hydroxy-phenyl-methyl)-oxazol-5-ylmethyl]-1-azonia-bicyclo[2.2.2]octane; formate]",< 5
9,"C/C=C/CO[C@H]1C[N+]2(Cc3cnc([C@](O)(c4ccccc4)C4CCCCC4)o3)CCC1CC2 [Example 113, (R)-3-[((E)-But-2-enyl)oxy]-1-[2-((R)-cyclohexyl-hydroxy-phenyl-methyl)-oxazol-5-ylmethyl]-1-azonia-bicyclo[2.2.2]octane; bromide]",< 5
10,"OC(c1ccccc1)(c1ccccc1)c1ncc(C[N+]23CCC(CC2)[C@@H](Oc2cccs2)C3)o1 [Example 102, (R)-1-[2-(Hydroxy-diphenyl-methyl)-oxazol-5-ylmethyl]-3-(thiophen-2-yloxy)-1-azonia-bicyclo[2.2.2]octane; bromide]",5 to 20
11,"OC(c1ccccc1)(c1ncc(C[N+]23CCC(CC2)[C@@H](OCc2ccccc2)C3)o1)C1CCCCCCC1 (single isomer, unassigned) [Example 48, formate]",< 5
12,"Cc1ccc(CO[C@H]2C[N+]3(Cc4cnc([C@](O)(c5ccccc5)C5CCCCC5)o4)CCC2CC3)cc1 [Example 34, (R)-1-[2-((R)—Cyclohexyl-hydroxy-phenyl-methyl)-oxazol-5-ylmethyl]-3-(4-methyl-benzyloxy)-1-azonia-bicyclo[2.2.2]octane; bromide]",< 5
13,"OC(c1ccccc1)(c1cc(C[N+]23CCC(CC2)C(CSc2ccccc2)C3)on1)C1CCCCC1 (single isomer, unassigned) [Example 123]",< 5
14,"OC(c1ccccc1)(c1cc(C[N+]23CCC(CC2)[C@@H](SCc2ccccc2)C3)on1)C1CCCCC1 (single isomer, unassigned) [Example 126]",< 5
15,"O[C@](c1ccccc1)(c1ncc(C[N+]23CCC(CC2)C(OCc2ccccc2)C3)o1)C1CCCCC1 (stereo partly drawn) [Example 16, 3-benzyloxy-1-[2-((R)-cyclohexyl-hydroxy-phenyl-methyl)-oxazol-5-ylmethyl]-1-azonia-bicyclo[2.2.2]octane; formate]",< 5
16,"OC(c1ccccc1)(c1ccccc1)c1noc(C[N+]23CCC(CC2)[C@@H](Oc2cccc(C(F)(F)F)c2)C3)n1 [Example 137, (R)-1-[3-(Hydroxy-diphenyl-methyl)-[1,2,4]oxadiazol-5-ylmethyl]-3-(3-trifluoromethyl-phenoxy)-1-azonia-bicyclo[2.2.2]octane; chloride]",< 5
